The values that follow come from US20230295197A1, “STAT5 and STAT6 Degraders and Uses Thereof” (REGENTS OF THE UNIVERSITY OF MICHICAN, priority 2022, published 2023).

In general, DC50 refers to the concentration giving 50% degradation.

The target in the test is T1, STAT6 (Homo sapiens, UniProt P42226).
T1 construct: endogenous in cells; host or cells: MOLM-16, KU-812, SKNO1, MB231, L1236
T1 sequence (P42226 1-847): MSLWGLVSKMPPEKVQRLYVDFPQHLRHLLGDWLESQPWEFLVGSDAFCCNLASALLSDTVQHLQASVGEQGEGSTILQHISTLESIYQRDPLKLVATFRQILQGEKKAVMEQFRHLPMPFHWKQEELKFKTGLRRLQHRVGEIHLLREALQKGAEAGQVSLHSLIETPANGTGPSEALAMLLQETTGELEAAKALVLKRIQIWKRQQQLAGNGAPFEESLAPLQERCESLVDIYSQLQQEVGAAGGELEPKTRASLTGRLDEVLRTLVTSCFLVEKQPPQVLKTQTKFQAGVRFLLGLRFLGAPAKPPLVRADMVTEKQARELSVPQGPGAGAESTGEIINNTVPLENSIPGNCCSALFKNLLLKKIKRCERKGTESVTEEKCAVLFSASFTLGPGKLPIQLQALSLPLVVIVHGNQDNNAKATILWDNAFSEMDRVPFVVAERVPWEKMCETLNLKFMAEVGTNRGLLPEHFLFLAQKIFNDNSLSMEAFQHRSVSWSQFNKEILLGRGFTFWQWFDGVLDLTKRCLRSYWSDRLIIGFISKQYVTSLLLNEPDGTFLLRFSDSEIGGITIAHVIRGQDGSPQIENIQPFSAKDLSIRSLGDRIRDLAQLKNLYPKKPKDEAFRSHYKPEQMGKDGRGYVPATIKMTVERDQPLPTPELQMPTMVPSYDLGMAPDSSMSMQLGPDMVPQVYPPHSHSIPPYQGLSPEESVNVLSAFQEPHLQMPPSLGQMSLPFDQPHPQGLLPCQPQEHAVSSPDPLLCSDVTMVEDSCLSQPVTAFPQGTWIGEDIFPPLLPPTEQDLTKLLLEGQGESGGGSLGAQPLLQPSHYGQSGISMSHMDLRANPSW
Briefly: Immunoblotting (Western blot) analysis of STAT6 degradation efficiency of degraders in treated cells. The class given is cell-based. The method, boiled down:
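Read-out: fluorescent IRDye 680RD/800CW secondaries imaged on an infrared scanner, with band intensities quantified by densitometry and GAPDH serving as loading control. Samples were RIPA lysates, BCA-normalised, from ~1 million treated cells.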
On the technique in general: Immunoblotting shows a protein as a band on a membrane.

Setting [1] is: L1236 cells, read-out: DC50 S6 L1236.
Where [2] appears, read: MOLM-16 cells, class symbols, read-out: DC50 S6 MOLM-16.

Like-named read-outs stand apart in the source and are kept apart here.

On to `Cc1ncsc1-c1ccc([C@H](C)NC(=O)[C@@H]2C[C@@H](O)CN2C(=O)[C@@H](NC(=O)CCCCCCCCCNC(=O)CC(=O)N2CCN(C(=O)[C@@H](NC(=O)c3cc4cc(C(F)(F)P(=O)(O)O)ccc4s3)C(C)(C)C)[C@H](C(=O)N3CCC[C@H](c4ccccc4)C3)C2)C(C)(C)C)cc1` [Compound 460, (difluoro(2-(((S)-1-((S)-4-(3-((10-(((S)-1-((2S,4R)-4-hydroxy-2-(((S)-1-(4-(4-methylthiazol-5-yl)phenyl)ethyl)carbamoyl)pyrrolidin-1-yl)-3,3-dimethyl-1-oxobutan-2-yl)amino)-10-oxodecyl)amino)-3-oxopropanoyl)-2-((R)-3-phenylpiperidine-1-carbonyl)piperazin-1-yl)-3,3-dimethyl-1-oxobutan-2-yl)carbamoyl)benzo[b]thiophen-5-yl)methyl)phosphonic acid], for which the DC50 runs as follows: under setting [1], over 10 µM; under setting [2], over 10 µM. Turning to `Cc1ncsc1-c1ccc([C@H](C)NC(=O)[C@@H]2C[C@@H](O)CN2C(=O)[C@@H](NC(=O)CCCCNC(=O)CO[C@H]2C[C@@H](C(=O)N3CCC[C@H](c4ccccc4)C3)N(C(=O)[C@@H](NC(=O)c3cc4cc(C(F)(F)P(=O)(O)O)ccc4s3)C(C)(C)C)C2)C(C)(C)C)cc1` [Compound 437, (difluoro(2-(((S)-1-((2S,4S)-4-(2-((5-(((S)-1-((2S,4R)-4-hydroxy-2-(((S)-1-(4-(4-methylthiazol-5-yl)phenyl)ethyl)carbamoyl)pyrrolidin-1-yl)-3,3-dimethyl-1-oxobutan-2-yl)amino)-5-oxopentyl)amino)-2-oxoethoxy)-2-((R)-3-phenylpiperidine-1-carbonyl)pyrrolidin-1-yl)-3,3-dimethyl-1-oxobutan-2-yl)carbamoyl)benzo[b]thiophen-5-yl)methyl)phosphonic acid], the DC50 reads like this: under setting [1], over 10 µM; under setting [2], over 10 µM. For `CC(C)(C)[C@H](NC(=O)c1cc2cc(C(F)(F)P(=O)(O)O)ccc2s1)C(=O)N1C[C@@H](OCC(=O)NCCC#Cc2cccc3c2C(=O)N(C2CCC(=O)NC2=O)C3=O)C[C@H]1C(=O)N1CCO[C@H](c2ccccc2)C1` (stereo partly drawn) [Compound 481, ((2-(((2S)-1-((2S,4S)-4-(2-((4-(2-(2,6-dioxopiperidin-3-yl)-1,3-dioxoisoindolin-4-yl)but-3-yn-1-yl)amino)-2-oxoethoxy)-2-((R)-2-phenylmorpholine-4-carbonyl)pyrrolidin-1-yl)-3,3-dimethyl-1-oxobutan-2-yl)carbamoyl)benzo[b]thiophen-5-yl)difluoromethyl)phosphonic acid], under setting [2], the DC50 is over 10 µM. Same read-out and setting: then `CC(C)(C)[C@H](NC(=O)c1cc2cc(C(F)(F)P(=O)(O)O)ccc2s1)C(=O)N1C[C@@H](OCC(=O)NCC#Cc2cccc3c2C(=O)N(C2CCC(=O)NC2=O)C3=O)C[C@H]1C(=O)N1CCO[C@H](c2ccccc2)C1` (stereo partly drawn) [Compound 479, ((2-(((2S)-1-((2S,4S)-4-(2-((3-(2-(2,6-dioxopiperidin-3-yl)-1,3-dioxoisoindolin-4-yl)prop-2-yn-1-yl)amino)-2-oxoethoxy)-2-((R)-2-phenylmorpholine-4-carbonyl)pyrrolidin-1-yl)-3,3-dimethyl-1-oxobutan-2-yl)carbamoyl)benzo[b]thiophen-5-yl)difluoromethyl)phosphonic acid], with over 10 µM; and `CC(C)(C)[C@H](NC(=O)c1cc2cc(C(F)(F)P(=O)(O)O)ccc2s1)C(=O)N1CCN(C(=O)CC(=O)NCCC#Cc2ccc3c(c2)C(=O)N(C2CCC(=O)NC2=O)C3=O)C[C@H]1C(=O)N1CCC[C@H](c2ccccc2)C1` (stereo partly drawn) [Compound 524, ((2-(((2S)-1-((2S)-4-(3-((4-(2-(2,6-dioxopiperidin-3-yl)-1,3-dioxoisoindolin-5-yl)but-3-yn-1-yl)amino)-3-oxopropanoyl)-2-((R)-3-phenylpiperidine-1-carbonyl)piperazin-1-yl)-3,3-dimethyl-1-oxobutan-2-yl)carbamoyl)benzo[b]thiophen-5-yl)difluoromethyl)phosphonic acid], with over 10 µM.
